Test results: ChEMBL document CHEMBL5715954, “Silencing c-Myc translation as a therapeutic strategy through targeting PI3Kδ and CK1ε in hematological malignancies” (Blood, 2017)

Tests used:
Parameters in all cases: scale not given: the % may be the effect or the level left
[1] = biological target: T1, Serine/threonine-protein kinase Nek3 (Homo sapiens) (UniProt P51956); assay: Inhibition of human NEK3 assessed as enzyme activity at 1 uM using myelin basic protein as substrate preincubated for 20 mins followed by [gamma-33P]-ATP addition and measured after 120 mins by radiometric Hot-SpotSM Kinase assay relative to control
T1 sequence (whole entry): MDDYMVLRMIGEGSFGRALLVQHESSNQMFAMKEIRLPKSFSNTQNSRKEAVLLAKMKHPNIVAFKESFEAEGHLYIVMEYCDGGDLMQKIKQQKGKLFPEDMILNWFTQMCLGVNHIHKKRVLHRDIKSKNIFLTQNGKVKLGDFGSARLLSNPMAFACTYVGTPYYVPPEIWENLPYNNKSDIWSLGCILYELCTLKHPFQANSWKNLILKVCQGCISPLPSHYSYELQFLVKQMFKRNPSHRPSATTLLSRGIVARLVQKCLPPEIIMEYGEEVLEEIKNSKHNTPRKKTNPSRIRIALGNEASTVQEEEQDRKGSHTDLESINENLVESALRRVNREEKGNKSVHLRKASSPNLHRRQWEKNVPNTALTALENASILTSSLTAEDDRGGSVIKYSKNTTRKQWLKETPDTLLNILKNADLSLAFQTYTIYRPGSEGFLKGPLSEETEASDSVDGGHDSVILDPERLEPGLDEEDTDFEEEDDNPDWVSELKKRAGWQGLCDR

[2] = biological target: Focal adhesion kinase 1 (Homo sapiens) (UniProt Q05397); assay: Inhibition of human FAK assessed as enzyme activity at 1 uM using poly[Glu:Tyr] (4:1) as substrate preincubated for 20 mins followed by [gamma-33P]-ATP addition and measured after 120 mins by radiometric Hot-SpotSM Kinase assay relative to control
Focal adhesion kinase 1 (Homo sapiens), sequence (Q05397 2-1052 limits assumed): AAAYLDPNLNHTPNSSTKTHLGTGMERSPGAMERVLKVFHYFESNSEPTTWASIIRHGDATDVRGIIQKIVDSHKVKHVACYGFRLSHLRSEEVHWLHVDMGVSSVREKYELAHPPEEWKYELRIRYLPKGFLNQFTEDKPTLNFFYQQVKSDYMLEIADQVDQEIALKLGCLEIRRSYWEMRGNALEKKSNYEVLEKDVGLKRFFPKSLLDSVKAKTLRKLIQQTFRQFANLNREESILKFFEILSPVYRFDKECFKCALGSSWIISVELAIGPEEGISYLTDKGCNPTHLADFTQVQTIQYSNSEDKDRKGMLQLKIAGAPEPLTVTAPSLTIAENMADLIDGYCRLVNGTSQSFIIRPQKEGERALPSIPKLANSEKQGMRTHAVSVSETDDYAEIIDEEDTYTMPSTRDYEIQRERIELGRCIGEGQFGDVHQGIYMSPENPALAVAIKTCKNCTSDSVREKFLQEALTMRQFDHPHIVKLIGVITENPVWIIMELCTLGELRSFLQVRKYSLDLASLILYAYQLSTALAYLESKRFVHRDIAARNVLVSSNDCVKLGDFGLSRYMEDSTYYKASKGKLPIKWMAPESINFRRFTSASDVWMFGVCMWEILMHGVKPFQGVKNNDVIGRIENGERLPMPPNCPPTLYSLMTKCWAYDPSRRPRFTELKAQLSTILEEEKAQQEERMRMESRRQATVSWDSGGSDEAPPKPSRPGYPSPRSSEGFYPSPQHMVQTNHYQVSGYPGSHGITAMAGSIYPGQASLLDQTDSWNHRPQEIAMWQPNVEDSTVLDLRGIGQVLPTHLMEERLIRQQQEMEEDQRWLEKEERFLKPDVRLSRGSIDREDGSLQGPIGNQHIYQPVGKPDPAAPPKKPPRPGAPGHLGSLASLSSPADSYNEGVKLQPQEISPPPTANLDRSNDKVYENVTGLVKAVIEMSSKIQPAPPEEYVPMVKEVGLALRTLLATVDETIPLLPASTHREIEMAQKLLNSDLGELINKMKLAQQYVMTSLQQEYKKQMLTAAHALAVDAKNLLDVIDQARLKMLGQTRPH

[3] = biological target: T2, Ephrin type-B receptor 1 (Homo sapiens) (UniProt P54762); assay: Inhibition of human EPHB1 assessed as enzyme activity at 1 uM using poly[Glu:Tyr] (4:1) as substrate preincubated for 20 mins followed by [gamma-33P]-ATP addition and measured after 120 mins by radiometric Hot-SpotSM Kinase assay relative to control
T2 sequence (whole entry): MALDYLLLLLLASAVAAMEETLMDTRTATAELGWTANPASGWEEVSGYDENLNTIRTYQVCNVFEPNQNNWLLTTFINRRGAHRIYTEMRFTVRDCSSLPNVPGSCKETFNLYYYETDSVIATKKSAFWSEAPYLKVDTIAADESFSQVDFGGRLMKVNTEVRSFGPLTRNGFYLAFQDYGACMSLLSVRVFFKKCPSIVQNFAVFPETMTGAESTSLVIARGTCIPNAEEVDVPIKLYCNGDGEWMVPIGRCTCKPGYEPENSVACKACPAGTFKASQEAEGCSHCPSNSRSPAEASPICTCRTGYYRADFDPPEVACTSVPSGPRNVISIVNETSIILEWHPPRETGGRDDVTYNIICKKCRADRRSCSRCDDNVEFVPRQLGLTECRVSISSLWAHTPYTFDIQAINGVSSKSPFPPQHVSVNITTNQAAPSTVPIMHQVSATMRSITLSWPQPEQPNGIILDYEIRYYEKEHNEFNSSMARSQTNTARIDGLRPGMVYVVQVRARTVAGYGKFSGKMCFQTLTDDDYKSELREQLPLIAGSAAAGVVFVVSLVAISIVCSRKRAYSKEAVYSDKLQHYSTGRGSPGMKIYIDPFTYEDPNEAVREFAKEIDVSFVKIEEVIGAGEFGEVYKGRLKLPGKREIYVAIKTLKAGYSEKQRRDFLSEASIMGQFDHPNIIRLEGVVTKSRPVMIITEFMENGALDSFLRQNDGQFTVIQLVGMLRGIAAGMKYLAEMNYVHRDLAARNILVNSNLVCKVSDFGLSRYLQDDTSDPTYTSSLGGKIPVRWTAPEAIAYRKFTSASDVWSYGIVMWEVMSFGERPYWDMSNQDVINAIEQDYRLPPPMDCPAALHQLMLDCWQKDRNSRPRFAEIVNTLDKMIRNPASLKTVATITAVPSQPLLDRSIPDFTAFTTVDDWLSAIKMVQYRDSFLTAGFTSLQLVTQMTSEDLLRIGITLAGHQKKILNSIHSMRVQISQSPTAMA

[4] = biological target: Mitogen-activated protein kinase 11 (Homo sapiens) (UniProt Q15759); assay: Inhibition of human P38b assessed as enzyme activity at 1 uM using myelin basic protein as substrate preincubated for 20 mins followed by [gamma-33P]-ATP addition and measured after 120 mins by radiometric Hot-SpotSM Kinase assay relative to control
Mitogen-activated protein kinase 11 (Homo sapiens), sequence (Q15759 whole entry): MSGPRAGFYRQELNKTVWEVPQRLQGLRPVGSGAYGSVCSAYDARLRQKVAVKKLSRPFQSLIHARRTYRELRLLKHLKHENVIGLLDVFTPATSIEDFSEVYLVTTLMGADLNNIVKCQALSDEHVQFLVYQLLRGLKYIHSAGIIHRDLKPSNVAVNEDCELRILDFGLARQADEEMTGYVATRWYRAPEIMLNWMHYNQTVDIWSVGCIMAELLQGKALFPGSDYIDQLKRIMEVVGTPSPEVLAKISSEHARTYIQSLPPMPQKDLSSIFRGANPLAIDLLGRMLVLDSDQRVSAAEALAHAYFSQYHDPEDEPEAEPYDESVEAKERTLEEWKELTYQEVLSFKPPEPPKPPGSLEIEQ

[5] = biological target: T3, Protein kinase C iota type (Homo sapiens) (UniProt P41743); assay: Inhibition of human PKCiota assessed as enzyme activity at 1 uM using ERMRPRKRQGSVRRRV as substrate preincubated for 20 mins followed by [gamma-33P]-ATP addition and measured after 120 mins by radiometric Hot-SpotSM Kinase assay relative to control
T3 sequence (whole entry): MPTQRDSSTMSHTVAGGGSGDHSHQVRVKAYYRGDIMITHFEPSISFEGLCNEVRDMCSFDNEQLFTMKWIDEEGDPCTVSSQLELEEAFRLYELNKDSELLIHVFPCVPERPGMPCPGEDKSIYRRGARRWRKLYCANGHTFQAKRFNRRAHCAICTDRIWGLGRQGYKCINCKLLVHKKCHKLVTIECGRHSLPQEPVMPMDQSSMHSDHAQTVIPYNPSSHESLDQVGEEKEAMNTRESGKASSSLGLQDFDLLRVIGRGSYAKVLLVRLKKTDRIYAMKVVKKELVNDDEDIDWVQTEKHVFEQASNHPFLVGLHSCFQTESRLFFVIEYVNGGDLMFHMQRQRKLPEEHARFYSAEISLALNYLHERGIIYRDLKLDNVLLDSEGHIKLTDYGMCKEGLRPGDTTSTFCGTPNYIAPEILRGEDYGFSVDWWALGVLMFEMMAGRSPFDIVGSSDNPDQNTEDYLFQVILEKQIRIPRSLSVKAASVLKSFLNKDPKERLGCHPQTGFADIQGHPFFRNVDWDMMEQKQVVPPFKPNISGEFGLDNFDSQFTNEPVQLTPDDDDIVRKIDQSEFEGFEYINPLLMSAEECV

[6] = biological target: Tyrosine-protein kinase Fyn (Homo sapiens) (UniProt P06241); assay: Inhibition of human FYN assessed as enzyme activity at 1 uM using poly[Glu:Tyr] (4:1) as substrate preincubated for 20 mins followed by [gamma-33P]-ATP addition and measured after 120 mins by radiometric Hot-SpotSM Kinase assay relative to control
Tyrosine-protein kinase Fyn (Homo sapiens), sequence (P06241 2-537 limits assumed): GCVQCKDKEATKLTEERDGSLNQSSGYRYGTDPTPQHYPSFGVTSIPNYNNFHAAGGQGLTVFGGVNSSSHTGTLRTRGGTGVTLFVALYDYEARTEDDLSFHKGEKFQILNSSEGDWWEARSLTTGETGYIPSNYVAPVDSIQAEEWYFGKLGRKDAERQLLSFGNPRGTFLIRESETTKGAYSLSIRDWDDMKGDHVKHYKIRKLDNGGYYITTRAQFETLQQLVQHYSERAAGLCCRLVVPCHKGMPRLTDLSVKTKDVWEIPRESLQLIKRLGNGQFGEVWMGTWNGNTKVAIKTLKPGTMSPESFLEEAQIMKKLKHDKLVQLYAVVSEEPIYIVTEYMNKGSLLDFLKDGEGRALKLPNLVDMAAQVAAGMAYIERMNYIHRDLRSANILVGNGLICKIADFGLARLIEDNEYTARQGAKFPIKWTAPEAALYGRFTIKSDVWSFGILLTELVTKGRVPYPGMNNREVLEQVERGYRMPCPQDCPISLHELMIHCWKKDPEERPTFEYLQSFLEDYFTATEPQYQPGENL

SMILES | Activity [1] | Activity [2] | Activity [3] | Activity [4] | Activity [5] | Activity [6]
CC[C@H](Nc1ncnc2[nH]cnc12)c1nc2cccc(F)c2c(=O)n1-c1ccccc1 | 93.9% | 103% | 90.6% | 94.8% | 94% | 100%
C[C@H](Nc1ncnc2nc[nH]c12)c1cc2cccc(Cl)c2c(=O)n1-c1ccccc1 | 98.5% | 98.4% | 93.4% | 92.6% | 98.2% | 103%
CC(C)Oc1ccc(-c2nn([C@@H](C)c3oc4ccc(F)cc4c(=O)c3-c3cccc(F)c3)c3ncnc(N)c23)cc1F [UMBRALISIB] | 101% | 100% | 95.5% | 89.3% | 95.7% | 99.7%
